Where two headings read alike, the source gives them in different places. Each block holds one compound with its values, some of them ahead of it.
Experiments:
[1] = target: CYP3A4 (Homo sapiens, UniProt P08684); assay: UV-Vis spectroscopy binding assay, CYP3A4; conditions: for increase in Ks on removal of the region B group: CYP3A4, region B-deleted analog vs parent
[2] = target: T1, CYP3A5 (Homo sapiens, UniProt P20815); assay: UV-Vis spectroscopy binding assay, CYP3A5
[3] = target: T2, purified human CYP3A4 (Homo sapiens, UniProt P08684); conditions: 10 min
[4] = target: T3, purified human CYP3A5 (Homo sapiens, UniProt P20815); conditions: 10 min
[5] = target: T2, purified human CYP3A4; assay: Biochemical P450-Glo CYP3A inhibition assay, CYP3A4
[6] = target: T3, purified human CYP3A5; assay: Biochemical P450-Glo CYP3A inhibition assay, CYP3A5
[7] = target: T1, CYP3A5; assay: in vitro
[8] = target: CYP3A5^G480A (Homo sapiens, UniProt P20815, G480A); assay: Cell-based P450-Glo CYP3A mutant inhibition assay, CYP3A5 G480A; conditions: 293T/17 cells
[9] = target: CYP3A5^G214A/G480A (Homo sapiens, UniProt P20815, G214A/G480A); assay: Cell-based P450-Glo CYP3A mutant inhibition assay, CYP3A5 G214A/G480A; conditions: 0.08–20 μM CBZ; 293T/17 cells
[10] = target: CYP3A5 G480L (Homo sapiens, UniProt P20815, G480L); assay: Cell-based P450-Glo CYP3A mutant inhibition assay, CYP3A5 G480L; conditions: G480L substitution; 293T/17 cells
[11] = target: CYP3A4^F108L (Homo sapiens, UniProt P08684, F108L); assay: Cell-based P450-Glo CYP3A mutant inhibition assay, CYP3A4 F108L; conditions: relative to CYP3A4^WT; 293T/17 cells
[12] = target: CYP3A5 G480S (Homo sapiens, UniProt P20815, G480S); assay: Cell-based P450-Glo CYP3A mutant inhibition assay, CYP3A5 G480S; conditions: G480S substitution; 293T/17 cells
[13] = target: CYP3A4^D214G (Homo sapiens, UniProt P08684, D214G); assay: Cell-based P450-Glo CYP3A mutant inhibition assay, CYP3A4 D214G; conditions: 293T/17 cells
[14] = target: T1, CYP3A5; assay: Time-dependent inhibition assay; assay type: biochemical; conditions: pre-incubation 0 or 30 mins at room temperature
[15] = target: CYP3A4^WT (Homo sapiens, UniProt P08684); assay: Cell-based P450-Glo CYP3A mutant inhibition assay, CYP3A4 WT; conditions: 293T/17 cells; also prior data ref 30

SMILES: CC(=O)OCC(=O)[C@@]1(OC(C)=O)[C@@H](C)C[C@H]2[C@@H]3C[C@H](F)C4=CC(=O)C=C[C@]4(C)[C@@]3(F)[C@@H](O)C[C@@]21C [diflorasone]
- CYP3A4 inhibition [3]: still capable of inhibiting CYP3A4 at high concentrations
- CYP3A5 inhibition [4]: no or weaker CYP3A5 inhibition than that of CBZ

SMILES: CCCC(=O)O[C@]1(C(=O)CCl)[C@@H](C)C[C@H]2[C@@H]3CCC4=CC(=O)C=C[C@]4(C)[C@@]3(F)C(=O)C[C@@]21C [clobetasone butyrate, Clobetasone butyrate]
- Ks for CYP3A4 compared with CBZ [1]: maintained similar Ks value
- CYP3A4 inhibition ([5]; P450-Glo biochemical assay): slightly enhanced CYP3A4 inhibition
- weaker CYP3A5 inhibition than CBZ (IC50 ratio) ([6]; IC50 of analog relative to CBZ): approximately 5 fold

SMILES: C[C@@H]1C[C@H]2[C@@H]3CCC4=CC(=O)C=C[C@]4(C)[C@@]3(F)[C@@H](O)C[C@]2(C)[C@H]1C(=O)CO [desoximetasone]
- CYP3A5 inhibition [4]: no or weaker CYP3A5 inhibition than that of CBZ

SMILES: CC(=O)OCC(=O)[C@@]1(O)[C@H](C)C[C@H]2[C@@H]3CCC4=CC(=O)C=C[C@]4(C)[C@@]3(F)[C@@H](O)C[C@@]21C [dexamethasone acetate]
- Ks relative to the counterpart with region B group ([2]; human, pH 7.4): > 100 fold
- inhibition at 10 min, 300 µM [7]: 35%

SMILES: CCC(=O)O[C@]1(C(=O)CCl)[C@@H](C)C[C@H]2[C@@H]3CCC4=CC(=O)C=C[C@]4(C)[C@@]3(F)[C@@H](O)C[C@@]21C [CBZ, Clobetasol propionate]
- inhibition compared with CYP3A5^WT [8]: to the same extent as was CYP3A5^WT
- increase in Ks on removal of the region B group [1]: approximately 20 fold
- effect on enzyme activity [9]: weakly activated
- reduction in potency vs WT [10]: at least 20 fold
- effect of the F108L substitution on inhibitory potency [11]: substantially weakened the inhibitory potency
- reduction in potency vs WT [12]: at least 20 fold
- CYP3A5 inhibition [4]: potent and selective inhibitor of CYP3A5
- inhibition compared with CYP3A4^WT [13]: identically
- time-dependent inhibition of CYP3A5 [14]: not time-dependent inhibitors of CYP3A5
- CYP3A4 inhibition [15]: can be inhibited at high CBZ concentrations

SMILES: C[C@H]1C[C@H]2[C@@H]3CCC4=CC(=O)C=C[C@]4(C)[C@@]3(F)[C@@H](O)C[C@]2(C)[C@@]1(O)C(=O)CCl [clobetasol, Clobetasol]
- IC50 ([5]; purified full-length CYP3A4, luciferin-IPA): 13 ± 4 µM
- Ks relative to the counterpart with region B group ([2]; dexamethasone acetate vs difluprednate, clobetasol vs CBZ, Ks higher): > 100 fold
- CYP3A5 inhibition ([6]; P450-Glo biochemical assay): failed to inhibit CYP3A5 even at the highest concentration tested

Now from value to compound, other results behind:

- increase in Ks on removal of the region B group [1]: 3 fold
- increase in Ks on removal of the region B group ([2]; human, pH 7.4): > 100 fold
- weakening of CYP3A4 inhibition on deleting the region B group [3]: approximately 10 fold
SMILES: CCCC(=O)O[C@]1(C(=O)COC(C)=O)CC[C@H]2[C@@H]3C[C@H](F)C4=CC(=O)C=C[C@]4(C)[C@@]3(F)[C@@H](O)C[C@@]21C [difluprednate]
- CYP3A5 inhibition [4]: strongest and most selective CYP3A5 inhibitor among all compounds we tested

- CYP3A5 inhibition [4]: consistently weaker CYP3A5 inhibition
SMILES: CCOC(=O)O[C@]1(C(=O)COC(=O)CC)CC[C@H]2[C@@H]3CCC4=CC(=O)C=C[C@]4(C)[C@H]3[C@@H](O)C[C@@]21C [prednicarbate, Prednicarbate]

- CYP3A5 inhibition [4]: consistently weaker CYP3A5 inhibition
SMILES: CCC(=O)OCC(=O)[C@@]1(OC(=O)CC)[C@@H](C)C[C@H]2[C@@H]3CCC4=CC(=O)C=C[C@]4(C)[C@@]3(F)[C@@H](O)C[C@@]21C [betamethasone dipropionate]

From article PMC8594567 (Journal of the American Chemical Society, 2021)
